Data published in paper PMC8261047, “In vivo Inhibition of the 3-Dehydroquinate Synthase by 7-Deoxysedoheptulose Depends on Promiscuous Uptake by Sugar Transporters in Cyanobacteria” (Frontiers in Microbiology, 2021).
Each block holds one molecule with its values, some of them ahead of it.

Columns and labels:
[1] = biological target: T1, 3-dehydroquinate synthase (AvDHQS, Ava_4386) (Trichormus variabilis, UniProt Q3M4V2); test: Malachite green phosphate release assay with purified AvDHQS; Michaelis-Menten kinetics at […] 7dSh; assay type: biochemical
T1 construct: gene aroB; Ava_4386 in pET22b, C-terminal His-Tag, ∼39 kDa
T1 sequence (Q3M4V2 1-363): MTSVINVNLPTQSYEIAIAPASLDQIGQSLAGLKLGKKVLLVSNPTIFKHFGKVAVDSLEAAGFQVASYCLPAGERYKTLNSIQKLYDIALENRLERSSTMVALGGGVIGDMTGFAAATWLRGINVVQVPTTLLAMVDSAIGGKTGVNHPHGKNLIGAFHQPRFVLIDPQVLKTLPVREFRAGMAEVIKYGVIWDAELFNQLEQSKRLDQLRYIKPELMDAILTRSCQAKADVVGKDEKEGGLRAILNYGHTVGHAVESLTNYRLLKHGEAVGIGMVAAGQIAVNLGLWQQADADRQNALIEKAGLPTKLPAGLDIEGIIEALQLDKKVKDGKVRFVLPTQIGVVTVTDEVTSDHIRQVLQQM

[2] = substrate: O=C(O)C(=O)C[C@@H](O)[C@H](O)[C@H](O)COP(=O)(O)O; test: Malachite green phosphate release assay with purified AvDHQS; kM of the substrate; assay type: biochemical, Trichormus variabilis; conditions: NAD^+

Ki [1]: 17.6 µM
Molecule: C[C@@H](O)[C@@H](O)[C@@H](O)[C@H](O)C(=O)CO [7dSh, 7-deoxy-D-altro-2-heptulose]

B1: 3-dehydroquinate synthase (AvDHQS, Ava_4386) (Trichormus variabilis ATCC 29413) (protein)
chain: T1 sequence (Q3M4V2 1-363)
notes: Ava_4386 in pET22b, C-terminal His-Tag, ∼39 kDa
Km [2]: 1.8 ± 0.3 µM
